According to ChEMBL document CHEMBL5723583, “Data for DCP probe BAY-9835” (2024):
pIC50: −log10 of the molar value.

Tests used:
[1] = molecular target: Prostaglandin G/H synthase 2 (Homo sapiens) (UniProt P35354); experiment: Inhibition of Cyclooxygenase COX-2 at 10.0 µM in the Eurofins-Panlabs selectivity screen; settings: Compound concentration 10.0 uM
[2] = molecular target: Beta-1 adrenergic receptor (Homo sapiens) (UniProt P08588); experiment: Inhibition of Adrenergic beta1 at 10.0 µM in the Eurofins-Panlabs selectivity screen; settings: Compound concentration 10.0 uM
[3] = molecular target: 5-hydroxytryptamine receptor 1A (Homo sapiens) (UniProt P08908); experiment: Inhibition of Serotonin (5-Hydroxytryptamine) 5-HT1A at 10.0 µM in the Eurofins-Panlabs selectivity screen; settings: Compound concentration 10.0 uM
[4] = molecular target: Beta-3 adrenergic receptor (Homo sapiens) (UniProt P13945); experiment: Inhibition of Adrenergic beta3 at 10.0 µM in the Eurofins-Panlabs selectivity screen; settings: Compound concentration 10.0 uM
[5] = molecular target: Sodium/potassium-transporting ATPase (Sus scrofa) (UniProt P05027+P05024+D2WKD8+D2WKD7+F1ST41); experiment: Inhibition of ATPase, Na+/K+, Heart, Pig at 10.0 µM in the Eurofins-Panlabs selectivity screen; assay type: protein-complex assay; settings: Compound concentration 10.0 uM
[6] = molecular target: Mu-type opioid receptor (Homo sapiens) (UniProt P35372); experiment: Inhibition of Opiate mu (OP3, MOP) at 10.0 µM in the Eurofins-Panlabs selectivity screen; settings: Compound concentration 10.0 uM
[7] = molecular target: D(3) dopamine receptor (Homo sapiens) (UniProt P35462); experiment: Inhibition of Dopamine D3 at 10.0 µM in the Eurofins-Panlabs selectivity screen; settings: Compound concentration 10.0 uM
[8] = molecular target: D(2) dopamine receptor (Homo sapiens) (UniProt P14416); experiment: Inhibition of Dopamine D2L at 10.0 µM in the Eurofins-Panlabs selectivity screen; settings: Compound concentration 10.0 uM
[9] = molecular target: Glutamate receptor ionotropic, kainate (Rattus norvegicus) (UniProt P22756+Q01812+P42260+P42264+Q63273); experiment: Inhibition of Glutamate, Kainate at 10.0 µM in the Eurofins-Panlabs selectivity screen; assay type: protein-complex assay; settings: Compound concentration 10.0 uM
[10] = molecular target: B2 bradykinin receptor (Homo sapiens) (UniProt P30411); experiment: Inhibition of Bradykinin B2 at 10.0 µM in the Eurofins-Panlabs selectivity screen; settings: Compound concentration 10.0 uM
[11] = molecular target: Disintegrin and metalloproteinase domain-containing protein 17 (Homo sapiens, UniProt P78536); experiment: IC50 of hADAM17 at 1.0 µM in the Bayer in-house protease panel
[12] = molecular target: Alpha-2A adrenergic receptor (Homo sapiens) (UniProt P08913); experiment: Inhibition of Adrenergic alpha2A at 10.0 µM in the Eurofins-Panlabs selectivity screen; settings: Compound concentration 10.0 uM
[13] = molecular target: 3-hydroxy-3-methylglutaryl-coenzyme A reductase (Homo sapiens) (UniProt P04035); experiment: Inhibition of HMG-CoA Reductase at 10.0 µM in the Eurofins-Panlabs selectivity screen; settings: Compound concentration 10.0 uM
[14] = molecular target: Histamine H3 receptor (Homo sapiens) (UniProt Q9Y5N1); experiment: Inhibition of Histamine H3 at 10.0 µM in the Eurofins-Panlabs selectivity screen; settings: Compound concentration 10.0 uM
[15] = molecular target: Alpha-2B adrenergic receptor (Homo sapiens) (UniProt P18089); experiment: Inhibition of Adrenergic alpha2B at 10.0 µM in the Eurofins-Panlabs selectivity screen; settings: Compound concentration 10.0 uM
[16] = molecular target: Histamine H2 receptor (Homo sapiens) (UniProt P25021); experiment: Inhibition of Histamine H2 at 10.0 µM in the Eurofins-Panlabs selectivity screen; settings: Compound concentration 10.0 uM
[17] = molecular target: Histamine H1 receptor (Homo sapiens) (UniProt P35367); experiment: Inhibition of Histamine H1 at 10.0 µM in the Eurofins-Panlabs selectivity screen; settings: Compound concentration 10.0 uM
[18] = molecular target: Muscarinic acetylcholine receptor M3 (Homo sapiens) (UniProt P20309); experiment: Inhibition of Muscarinic M3 at 10.0 µM in the Eurofins-Panlabs selectivity screen; settings: Compound concentration 10.0 uM
[19] = molecular target: Acetylcholinesterase (Homo sapiens) (UniProt P22303); experiment: Inhibition of Cholinesterase, Acetyl, ACES at 10.0 µM in the Eurofins-Panlabs selectivity screen; settings: Compound concentration 10.0 uM
[20] = molecular target: 3',5'-cyclic-AMP phosphodiesterase 4D (Homo sapiens) (UniProt Q08499); experiment: Inhibition of Phosphodiesterase PDE4D2 at 10.0 µM in the Eurofins-Panlabs selectivity screen; settings: Compound concentration 10.0 uM
[21] = molecular target: Beta-2 adrenergic receptor (Homo sapiens) (UniProt P07550); experiment: Inhibition of Adrenergic beta2 at 10.0 µM in the Eurofins-Panlabs selectivity screen; settings: Compound concentration 10.0 uM
[22] = molecular target: Calpain-1 catalytic subunit (Homo sapiens, UniProt P07384); experiment: IC50 of Calpain 1 at 1.0 µM in the Bayer in-house protease panel
[23] = molecular target: Glutamate NMDA receptor (Rattus norvegicus) (UniProt P35439+Q00959+Q00960+Q00961+Q62645+Q8VHN2+Q9R1M7); experiment: Inhibition of Glutamate, NMDA, Agonism at 10.0 µM in the Eurofins-Panlabs selectivity screen; assay type: protein-complex assay; settings: Compound concentration 10.0 uM
[24] = molecular target: Adenosine receptor A3 (Homo sapiens) (UniProt P0DMS8); experiment: Inhibition of Adenosine A3 at 10.0 µM in the Eurofins-Panlabs selectivity screen; settings: Compound concentration 10.0 uM
Cathepsin B = Cathepsin B (Homo sapiens, UniProt P07858); experiment: IC50 of Cathepsin B at 1.0 µM in the Bayer in-house protease panel
[25] = molecular target: Androgen receptor (Homo sapiens) (UniProt P10275); experiment: Inhibition of Androgen (Testosterone) at 10.0 µM in the Eurofins-Panlabs selectivity screen; settings: Compound concentration 10.0 uM
[26] = molecular target: Muscarinic acetylcholine receptor M1 (Homo sapiens) (UniProt P11229); experiment: Inhibition of Muscarinic M1 at 10.0 µM in the Eurofins-Panlabs selectivity screen; settings: Compound concentration 10.0 uM
[27] = molecular target: 5-hydroxytryptamine receptor 2A (Homo sapiens) (UniProt P28223); experiment: Inhibition of Serotonin (5-Hydroxytryptamine) 5-HT2A at 10.0 µM in the Eurofins-Panlabs selectivity screen; settings: Compound concentration 10.0 uM
[28] = molecular target: Prostaglandin G/H synthase 1 (Homo sapiens) (UniProt P23219); experiment: Inhibition of Cyclooxygenase COX-1 at 10.0 µM in the Eurofins-Panlabs selectivity screen; settings: Compound concentration 10.0 uM
[29] = molecular target: Macrophage metalloelastase (Homo sapiens, UniProt P39900); experiment: IC50 of hMMP12 at 1.0 µM in the Bayer in-house protease panel
[30] = molecular target: Sodium-dependent serotonin transporter (Homo sapiens) (UniProt P31645); experiment: Inhibition of Transporter, Serotonin (5-Hydroxytryptamine) (SERT) at 10.0 µM in the Eurofins-Panlabs selectivity screen; settings: Compound concentration 10.0 uM
[31] = molecular target: Endothelin-1 receptor (Homo sapiens) (UniProt P25101); experiment: Inhibition of Endothelin ETA at 10.0 µM in the Eurofins-Panlabs selectivity screen; settings: Compound concentration 10.0 uM
[32] = molecular target: Aldo-keto reductase family 1 member B1 (Homo sapiens) (UniProt P15121); experiment: Inhibition of Aldose Reductase at 10.0 µM in the Eurofins-Panlabs selectivity screen; settings: Rattus norvegicus; Compound concentration 10.0 uM
[33] = molecular target: Sodium-dependent noradrenaline transporter (Homo sapiens) (UniProt P23975); experiment: Inhibition of Transporter, Norepinephrine (NET) at 10.0 µM in the Eurofins-Panlabs selectivity screen; settings: Compound concentration 10.0 uM
[34] = molecular target: Insulin receptor (Homo sapiens) (UniProt P06213); experiment: Inhibition of Insulin at 10.0 µM in the Eurofins-Panlabs selectivity screen; settings: Rattus norvegicus; Compound concentration 10.0 uM
[35] = molecular target: Monoamine oxidase B (MAO-B) (Homo sapiens, UniProt P27338); experiment: Inhibition of Monoamine Oxidase MAO-B at 10.0 µM in the Eurofins-Panlabs selectivity screen; settings: compound concentration 10 uM

Chain of Acetylcholinesterase (Homo sapiens) (P22303 whole entry): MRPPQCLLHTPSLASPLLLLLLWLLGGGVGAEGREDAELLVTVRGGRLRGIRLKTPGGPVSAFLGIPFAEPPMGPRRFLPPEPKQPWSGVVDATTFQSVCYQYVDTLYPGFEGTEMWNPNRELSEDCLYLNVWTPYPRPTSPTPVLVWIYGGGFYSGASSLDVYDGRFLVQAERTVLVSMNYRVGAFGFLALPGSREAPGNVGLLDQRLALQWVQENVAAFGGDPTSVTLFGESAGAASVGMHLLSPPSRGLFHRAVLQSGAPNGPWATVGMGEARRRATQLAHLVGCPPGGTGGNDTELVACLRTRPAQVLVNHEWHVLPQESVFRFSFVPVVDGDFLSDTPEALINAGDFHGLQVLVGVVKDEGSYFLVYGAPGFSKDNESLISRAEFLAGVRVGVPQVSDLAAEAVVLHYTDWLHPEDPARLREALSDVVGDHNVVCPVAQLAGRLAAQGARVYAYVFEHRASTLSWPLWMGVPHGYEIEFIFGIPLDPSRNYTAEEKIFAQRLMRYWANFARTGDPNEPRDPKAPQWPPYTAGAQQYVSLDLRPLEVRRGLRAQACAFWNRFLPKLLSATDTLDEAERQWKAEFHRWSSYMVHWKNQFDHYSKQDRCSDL
Chain of Endothelin-1 receptor (Homo sapiens) (P25101 whole entry): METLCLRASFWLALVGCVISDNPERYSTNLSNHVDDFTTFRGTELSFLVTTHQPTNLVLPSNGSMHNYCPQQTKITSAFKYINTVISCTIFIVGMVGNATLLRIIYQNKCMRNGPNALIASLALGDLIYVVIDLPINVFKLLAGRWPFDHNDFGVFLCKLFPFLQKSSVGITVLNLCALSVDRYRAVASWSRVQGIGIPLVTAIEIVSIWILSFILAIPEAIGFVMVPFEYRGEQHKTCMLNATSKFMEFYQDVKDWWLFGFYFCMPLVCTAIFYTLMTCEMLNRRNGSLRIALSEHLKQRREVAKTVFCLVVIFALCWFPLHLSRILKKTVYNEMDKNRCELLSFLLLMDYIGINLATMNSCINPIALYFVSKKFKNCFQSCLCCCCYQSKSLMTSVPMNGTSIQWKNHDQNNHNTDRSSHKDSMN
Chain of 5-hydroxytryptamine receptor 1A (Homo sapiens) (P08908 whole entry): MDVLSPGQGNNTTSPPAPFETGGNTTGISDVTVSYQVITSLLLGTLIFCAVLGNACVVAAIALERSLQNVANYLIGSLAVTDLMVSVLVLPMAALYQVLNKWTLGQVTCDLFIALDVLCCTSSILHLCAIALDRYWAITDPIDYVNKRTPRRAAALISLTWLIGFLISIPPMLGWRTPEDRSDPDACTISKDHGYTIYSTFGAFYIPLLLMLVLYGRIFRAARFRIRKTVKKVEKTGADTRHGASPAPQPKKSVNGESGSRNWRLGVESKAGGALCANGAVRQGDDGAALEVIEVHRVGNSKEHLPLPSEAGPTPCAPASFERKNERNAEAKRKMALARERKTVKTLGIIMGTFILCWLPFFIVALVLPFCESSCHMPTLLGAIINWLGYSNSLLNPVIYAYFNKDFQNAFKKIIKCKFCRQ
Chain of Mu-type opioid receptor (Homo sapiens) (P35372 whole entry): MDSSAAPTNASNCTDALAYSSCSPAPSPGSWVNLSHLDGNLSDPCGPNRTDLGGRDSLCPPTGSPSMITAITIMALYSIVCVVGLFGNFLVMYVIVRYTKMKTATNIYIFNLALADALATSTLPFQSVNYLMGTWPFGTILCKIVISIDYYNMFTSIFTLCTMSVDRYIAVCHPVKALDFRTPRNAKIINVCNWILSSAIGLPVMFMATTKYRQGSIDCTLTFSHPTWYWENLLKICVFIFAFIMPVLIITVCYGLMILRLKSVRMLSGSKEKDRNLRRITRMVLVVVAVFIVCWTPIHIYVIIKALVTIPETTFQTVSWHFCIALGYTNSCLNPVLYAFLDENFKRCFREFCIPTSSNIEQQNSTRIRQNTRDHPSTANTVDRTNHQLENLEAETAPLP
Chain of Muscarinic acetylcholine receptor M3 (Homo sapiens) (P20309 whole entry, looked up): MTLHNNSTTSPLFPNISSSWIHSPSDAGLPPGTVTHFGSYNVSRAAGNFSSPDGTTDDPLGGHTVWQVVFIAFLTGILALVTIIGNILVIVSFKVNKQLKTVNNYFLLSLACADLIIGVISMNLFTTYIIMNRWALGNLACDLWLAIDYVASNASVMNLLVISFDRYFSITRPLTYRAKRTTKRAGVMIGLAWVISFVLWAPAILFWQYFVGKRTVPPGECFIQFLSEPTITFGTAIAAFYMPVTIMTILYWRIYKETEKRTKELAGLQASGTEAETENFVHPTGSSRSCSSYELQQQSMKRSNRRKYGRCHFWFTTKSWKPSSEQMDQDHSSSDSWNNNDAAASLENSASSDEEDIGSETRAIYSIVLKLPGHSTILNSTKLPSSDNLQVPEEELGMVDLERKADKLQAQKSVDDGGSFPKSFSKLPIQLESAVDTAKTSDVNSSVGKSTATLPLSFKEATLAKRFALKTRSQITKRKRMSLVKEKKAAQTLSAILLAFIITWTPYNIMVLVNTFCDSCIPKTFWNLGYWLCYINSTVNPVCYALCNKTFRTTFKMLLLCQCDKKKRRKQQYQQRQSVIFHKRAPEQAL
Chain of Histamine H1 receptor (Homo sapiens) (P35367 whole entry): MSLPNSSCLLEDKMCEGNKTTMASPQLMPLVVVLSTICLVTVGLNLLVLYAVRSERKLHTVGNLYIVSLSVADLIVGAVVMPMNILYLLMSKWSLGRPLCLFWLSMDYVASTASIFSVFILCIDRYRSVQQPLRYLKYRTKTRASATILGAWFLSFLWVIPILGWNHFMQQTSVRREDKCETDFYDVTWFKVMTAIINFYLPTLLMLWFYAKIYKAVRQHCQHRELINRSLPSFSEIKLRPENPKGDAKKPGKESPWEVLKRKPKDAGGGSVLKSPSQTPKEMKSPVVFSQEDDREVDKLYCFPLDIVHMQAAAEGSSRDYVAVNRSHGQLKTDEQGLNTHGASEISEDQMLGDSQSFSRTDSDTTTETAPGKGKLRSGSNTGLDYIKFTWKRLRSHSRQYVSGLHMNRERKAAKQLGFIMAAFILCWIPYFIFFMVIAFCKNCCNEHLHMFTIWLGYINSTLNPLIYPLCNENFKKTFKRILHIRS
Chain of Prostaglandin G/H synthase 2 (Homo sapiens) (P35354 whole entry): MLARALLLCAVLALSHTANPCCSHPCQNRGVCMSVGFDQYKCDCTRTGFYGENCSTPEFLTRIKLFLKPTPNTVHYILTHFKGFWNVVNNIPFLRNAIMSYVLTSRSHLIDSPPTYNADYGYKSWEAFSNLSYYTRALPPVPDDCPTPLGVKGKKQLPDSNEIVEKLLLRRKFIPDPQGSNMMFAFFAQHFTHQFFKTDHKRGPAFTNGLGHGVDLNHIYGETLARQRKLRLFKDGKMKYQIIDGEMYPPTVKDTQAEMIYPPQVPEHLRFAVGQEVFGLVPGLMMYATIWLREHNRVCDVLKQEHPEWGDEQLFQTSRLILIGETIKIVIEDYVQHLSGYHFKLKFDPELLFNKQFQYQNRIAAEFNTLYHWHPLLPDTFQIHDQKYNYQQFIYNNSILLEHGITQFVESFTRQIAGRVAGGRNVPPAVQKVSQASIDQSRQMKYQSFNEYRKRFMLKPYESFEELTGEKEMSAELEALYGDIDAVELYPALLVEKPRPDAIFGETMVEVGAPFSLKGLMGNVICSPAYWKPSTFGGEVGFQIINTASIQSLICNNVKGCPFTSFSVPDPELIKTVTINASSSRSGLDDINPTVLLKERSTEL
Chain of Alpha-2B adrenergic receptor (Homo sapiens) (P18089 whole entry): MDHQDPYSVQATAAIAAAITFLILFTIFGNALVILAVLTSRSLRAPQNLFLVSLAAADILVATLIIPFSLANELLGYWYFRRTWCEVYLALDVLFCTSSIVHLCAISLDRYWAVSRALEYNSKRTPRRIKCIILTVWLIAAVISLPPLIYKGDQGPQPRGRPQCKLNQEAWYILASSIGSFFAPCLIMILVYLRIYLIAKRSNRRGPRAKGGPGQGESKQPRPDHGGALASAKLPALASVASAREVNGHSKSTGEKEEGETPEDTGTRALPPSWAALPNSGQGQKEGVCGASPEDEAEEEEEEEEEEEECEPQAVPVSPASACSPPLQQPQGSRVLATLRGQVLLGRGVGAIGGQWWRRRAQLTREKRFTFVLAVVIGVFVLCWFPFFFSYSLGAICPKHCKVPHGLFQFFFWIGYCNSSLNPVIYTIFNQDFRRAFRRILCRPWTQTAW
Chain of Calpain-1 catalytic subunit (P07384 whole entry): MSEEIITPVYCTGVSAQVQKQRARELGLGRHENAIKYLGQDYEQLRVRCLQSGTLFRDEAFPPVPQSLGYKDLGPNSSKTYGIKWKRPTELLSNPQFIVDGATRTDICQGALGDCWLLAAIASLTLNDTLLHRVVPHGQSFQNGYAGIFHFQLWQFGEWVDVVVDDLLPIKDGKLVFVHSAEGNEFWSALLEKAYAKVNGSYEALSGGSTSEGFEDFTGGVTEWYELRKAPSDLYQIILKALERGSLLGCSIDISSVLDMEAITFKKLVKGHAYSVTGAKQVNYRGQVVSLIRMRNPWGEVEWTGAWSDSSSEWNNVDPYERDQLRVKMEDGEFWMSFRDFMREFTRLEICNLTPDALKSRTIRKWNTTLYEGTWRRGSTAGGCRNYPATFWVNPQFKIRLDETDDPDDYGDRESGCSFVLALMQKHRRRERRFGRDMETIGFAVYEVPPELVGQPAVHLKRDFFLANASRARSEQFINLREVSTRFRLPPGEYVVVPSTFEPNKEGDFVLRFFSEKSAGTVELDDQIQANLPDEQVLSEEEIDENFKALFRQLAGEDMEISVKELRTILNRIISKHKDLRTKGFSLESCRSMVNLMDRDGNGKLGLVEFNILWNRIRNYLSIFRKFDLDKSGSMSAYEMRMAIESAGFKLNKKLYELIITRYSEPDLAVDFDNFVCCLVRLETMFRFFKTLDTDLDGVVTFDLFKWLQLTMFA

**Q.** Which results are given for `Cn1nccc1[C@]1(CNC(=O)c2ccc(F)c(F)c2-c2ccc(C(F)(F)F)cc2)NC(=O)NC1=O`?
**A.** inhibition [1]: 11%; inhibition [2]: -8%; inhibition [3]: -3%; inhibition [4]: -3%; inhibition [5]: -5%; inhibition [6]: 2%; inhibition [7]: 2%; inhibition [8]: 2%; inhibition [9]: 12%; inhibition [10]: -6%; pIC50 [11]: 5.24; inhibition [12]: -3%; inhibition [13]: -5%; inhibition [14]: 6%; inhibition [15]: -3%; inhibition [16]: 16%; inhibition [17]: -1%; inhibition [18]: 9%; inhibition [19]: 3%; inhibition [20]: 3%; inhibition [21]: -9%; pIC50 [22]: < 4.00; inhibition [23]: 1%; inhibition [24]: 0%; pIC50 (Cathepsin B): < 4.00; inhibition [25]: 3%; inhibition [26]: -6%; inhibition [27]: -7%; inhibition [28]: -5%; pIC50 [29]: 5.27; inhibition [30]: 10%; inhibition [31]: 2%; inhibition [32]: -4%; inhibition [33]: 6%; inhibition [34]: -8%; inhibition at 10 µM [35]: 10%
